Measurements from patent US5705524A, “Thiepane compounds” (Gilead Sciences, Inc., priority 1995, dated 1998).
Where two headings read alike, the source gives them in different places.

What was measured:
HIV protease = molecular target: T1, HIV protease (Human immunodeficiency virus type 1 group M subtype B, UniProt P04585); assay: biochemical
T1 construct: measurement of HIV-protease (HIV-PR) activity
Protocol: Compositions to be subjected to enzyme assay are lyophilited and diluted in DMSO to 100-1000 μM. Compositions having apparent IC50 <1 μm are diluted to 100 μM.
The assay is a fluorometric method for measurement of HIV-protease (HIV-PR) activity utilizing a synthetic peptide substrate for HIV-PR based on that described by Matayoshi, E. D.; Wang, G. T.; Krafft, G. A.; and Erickson, J. W.; Science, 1990, 247, 954-958; and Wang, G. T.; Huffker, J. A.; Matayoshi, E.; and Krafft, G. A.; Tetrahedron Lett., 1990, 165, 6493-6496.
1.0 mM ethylenediaminetetraacetic acid (EDTA)
1.0 mM dithiothreitol (DTT)
10% dimethyl sulfoxide (DMSO)
1 mg/mL bovine serum albumin (BSA) adjusted to pH 4.7
1. Prepare a solution of 2 μM HIV Protease Substrate 1 in the Assay Buffer.
2. Dispense the substrate solution into UV-pass fluorescence cuvettes (1 cm pathlength).
3. Set the excitation and emission monochromators of the spectrofluorimeter to 340 nm and 490 nm, respectively. To obtain the same kinetic constants as reported, cuvettes should be held at 37° C. throughout the assay.
4. Begin each assay by adding a small amount (<3% of the final volume) of HIV-PR-containing solution diluted tin the Assay Buffer.
5. Measure the initial rate of cleavage of fluorogenic substrate by monitoring the increase in fluorescence signal at 490 nm for 5-8 min at 37° C.
(§1) The apparent IC50 and IC50 values reported below in Table 25 were determined using the assays of Example 34 and 35, respectively. The values are indicated as follows: +=10-50 μM, ++2-10 μM, and +++<2 μM.

HIV IIIB = assay: XTT Cell Culture Assay, cells infected with HIV IIIB (Example 35); type: cell-based; settings: read-out: Cell Culture IC50
Protocol: The method of Weislow, O. S.; Kiser, R.; Fine, D. L.; Bader, J.; Shoemaker, R. H.; and Boyd, M. R.; J. Nat. Cancer Institute, 1989, 81(8) 577-586 was applied with the following minor modifications: Infection of cells with HIV IIIB was performed without polybrene. Cells were distributed to Microtiter wells containing the compound of the invention 4 h after infection with HIV IIIB. 2×XTT was added at 5-6 days post infection. 20 μl 2% Triton X-100 was added 1 hour after XTT addition.
1. Add 4 ml of XTT (5 mg/ml) to 8 ml of Deficient RPMI medium (no phenol red, no serum). Mix briefly at 45° C. to dissolve XTT.
2. Add 800 μl of PMS (0.2 mg/ml) to XTT/RPMI mixture.
3. Remove 100 μl of cell free media from each well of a 96 well plate and replace with 100 μl of the XTT/PMS mixture.
4. Incubate at 37° C. for 1.5-2 h.
5. Read absorbance at 450 nm. Absorbance values are directly proportional to cell viability.
as §1

[1] = fluorogenic peptide substrate, 37° C., pH 4.7, read-out: Apparent Enzyme IC50
[2] = Human immunodeficiency virus 1, IIIB, HIV IIIB infected cells, XTT at 5-6 days post infection
[3] = HIV IIIB infected cells, XTT at 5-6 days post infection
[4] = Apparent Enzyme IC50, fluorogenic peptide substrate, 37° C., pH 4.7
[5] = Human immunodeficiency virus 1, IIIB

Structure (SMILES) | IC50 (HIV protease; [1]) [nM] | IC50 (HIV IIIB; [2]) [nM] | further results
O[C@@H]1[C@@H](O)[C@@H](OCc2ccccc2)CS[C@H](Cc2ccccc2)[C@@H]1OCc1ccccc1 [107/2] | 10000 to 50000 | – | –
[O-][S@+]1C[C@H](OCc2ccccc2)[C@H](O)[C@@H](O)[C@@H](OCc2ccccc2)[C@H]1Cc1ccccc1 [107/3] | 2000 to 10000 | – | –
[O-][S@@+]1C[C@H](OCc2ccccc2)[C@H](O)[C@@H](O)[C@@H](OCc2ccccc2)[C@H]1Cc1ccccc1 [107/4] | 2000 to 10000 | 10000 to 50000 | –
O=S1(=O)C[C@H](OCc2ccccc2)[C@H](O)[C@@H](O)[C@@H](OCc2ccccc2)[C@H]1Cc1ccccc1 [107/5] | < 2000 | 10000 to 50000 | –
N#Cc1ccccc1O[C@@H]1[C@H](O)[C@@H](O)[C@@H](Oc2ccccc2C#N)CS(=O)(=O)[C@@H]1Cc1ccccc1 [107/10] | 2000 to 10000 | – | –
N#Cc1ccc(O[C@@H]2[C@H](O)[C@@H](O)[C@@H](Oc3ccc(C#N)cc3)CS[C@@H]2Cc2ccccc2)cc1 [107/12] | 2000 to 10000 | – | –
N#Cc1ccc(O[C@@H]2[C@H](O)[C@@H](O)[C@@H](Oc3ccc(C#N)cc3)CS(=O)(=O)[C@@H]2Cc2ccccc2)cc1 [107/15] | 2000 to 10000 | – | –
[O-][S+]1[C@H](Cc2ccccc2)[C@H](OCc2ccccc2)[C@H](O)[C@@H](O)[C@@H](OCc2ccccc2)[C@H]1Cc1ccccc1 (stereo partly shown) [108/4] | < 2000 | – | IC50 (HIV IIIB; [3]): < 2000 nM
O=S1(=O)[C@H](Cc2ccccc2)[C@H](OCc2ccccc2)[C@H](O)[C@@H](O)[C@@H](OCc2ccccc2)[C@H]1Cc1ccccc1 [108/5] | – | < 2000 | –
[O-][S@@+]1[C@H](Cc2ccccc2)[C@H](OCc2ccccc2)[C@H](O)[C@@H](O)[C@@H](OCc2ccccc2)[C@@H]1Cc1ccccc1 [108/17] | 2000 to 10000 | 2000 to 10000 | –
O=S1(=O)[C@H](Cc2ccccc2)[C@H](OCc2ccccc2)[C@H](O)[C@@H](O)[C@@H](OCc2ccccc2)[C@@H]1Cc1ccccc1 [108/18] | < 2000 | 10000 to 50000 | –
O=S1(=O)[C@H](Cc2ccccc2)[C@H](OCc2ccccc2)[C@H](O)[C@@H](O)[C@H](OCc2ccccc2)[C@H]1Cc1ccccc1 [108/21] | < 2000 | < 2000 | –
O=S1(=O)[C@@H](Cc2ccccc2)[C@@H](OCc2ccccc2)[C@@H](O)[C@H](O)[C@H](OCc2ccccc2)[C@@H]1Cc1ccccc1 [108/27] | 10000 to 50000 | 10000 to 50000 | –
[O-][S+]1[C@H](Cc2ccccc2)[C@H](OCc2ccccc2)[C@H](O)[C@@H](O)[C@@H](OCc2ccccc2)[C@H]1Cc1ccccc1 (stereo partly shown) [120/3] | < 2000 | – | IC50 (HIV IIIB; [3]): 10000 to 50000 nM
CC1(C)O[C@@H]2[C@@H](O1)[C@@H](OCc1ccccn1)[C@@H](Cc1ccccc1)S(=O)(=O)[C@H](Cc1ccccc1)[C@@H]2OCc1ccccn1 [120/6] | < 2000 | 2000 to 10000 | –
CC1(C)O[C@@H]2[C@@H](O1)[C@@H](OCc1cccc[n+]1[O-])[C@@H](Cc1ccccc1)S(=O)(=O)[C@H](Cc1ccccc1)[C@@H]2OCc1ccccn1 [120/7] | < 2000 | 2000 to 10000 | –
O=S1(=O)[C@H](Cc2ccccc2)[C@H](OCc2cccnc2)[C@H](O)[C@@H](O)[C@@H](OCc2cccnc2)[C@H]1Cc1ccccc1 [120/15] | < 2000 | < 2000 | –
O=S1(=O)[C@H](Cc2ccccc2)[C@H](OCc2cccnc2)[C@H](O)[C@@H](O)[C@@H](OCc2ccc[n+]([O-])c2)[C@H]1Cc1ccccc1 [120/16] | < 2000 | < 2000 | –
O=S1(=O)[C@H](Cc2ccccc2)[C@H](OCc2ccncc2)[C@H](O)[C@@H](O)[C@@H](OCc2ccncc2)[C@H]1Cc1ccccc1 [120/19] | < 2000 | – | –
Cc1nc(CO[C@@H]2[C@H](O)[C@@H](O)[C@@H](OCc3csc(C)n3)[C@@H](Cc3ccccc3)S(=O)(=O)[C@@H]2Cc2ccccc2)cs1 [120/22] | < 2000 | 10000 to 50000 | –
O=S1(=O)[C@H](Cc2ccccc2)[C@H](OCc2cncs2)[C@H](O)[C@@H](O)[C@@H](OCc2cncs2)[C@H]1Cc1ccccc1 [120/25] | – | < 2000 | IC50 (HIV protease; read-out: Apparent Enzyme IC50): < 2000 nM
O=S1(=O)[C@H](Cc2ccccc2)[C@H](Oc2ccccn2)[C@H](O)[C@@H](O)[C@@H](Oc2ccccn2)[C@H]1Cc1ccccc1 [120/28] | < 2000 | – | –
Cc1cccc(CO[C@@H]2[C@H](O)[C@@H](O)[C@@H](OCc3cccc(C)c3)[C@@H](Cc3ccccc3)S(=O)(=O)[C@@H]2Cc2ccccc2)c1 [120/31] | < 2000 | < 2000 | –
COc1cccc(CO[C@@H]2[C@H](O)[C@@H](O)[C@@H](OCc3cccc(OC)c3)[C@@H](Cc3ccccc3)S(=O)(=O)[C@@H]2Cc2ccccc2)c1 [120/34] | < 2000 | < 2000 | –
O=S1(=O)[C@H](Cc2ccccc2)[C@H](OCc2cccc(Br)c2)[C@H](O)[C@@H](O)[C@@H](OCc2cccc(Br)c2)[C@H]1Cc1ccccc1 [120/37] | < 2000 | – | –
O=S1(=O)[C@H](Cc2ccccc2)[C@H](OCc2cccc(OCc3ccccc3)c2)[C@H](O)[C@@H](O)[C@@H](OCc2cccc(OCc3ccccc3)c2)[C@H]1Cc1ccccc1 [120/40] | < 2000 | – | –
O=S1(=O)[C@H](Cc2ccccc2)[C@H](OCc2cccc(O)c2)[C@H](O)[C@@H](O)[C@@H](OCc2cccc(O)c2)[C@H]1Cc1ccccc1 [120/41] | < 2000 | – | –
O=[N+]([O-])c1cccc(CO[C@@H]2[C@H](O)[C@@H](O)[C@@H](OCc3cccc([N+](=O)[O-])c3)[C@@H](Cc3ccccc3)[S+]([O-])[C@@H]2Cc2ccccc2)c1 (stereo partly shown) [120/44] | – | – | IC50 (HIV protease; [4]): < 2000 nM; IC50 (HIV IIIB; [5]): < 2000 nM
O=[N+]([O-])c1cccc(CO[C@@H]2[C@H](O)[C@@H](O)[C@@H](OCc3cccc([N+](=O)[O-])c3)[C@@H](Cc3ccccc3)S(=O)(=O)[C@@H]2Cc2ccccc2)c1 [120/45] | – | – | IC50 (HIV protease; [4]): < 2000 nM; IC50 (HIV IIIB; [5]): < 2000 nM
Nc1cccc(CO[C@@H]2[C@H](O)[C@@H](O)[C@@H](OCc3cccc(N)c3)[C@@H](Cc3ccccc3)S(=O)(=O)[C@@H]2Cc2ccccc2)c1 [120/46] | < 2000 | < 2000 | –
